These results are taken from patent US11052090B2, “Use of TREM-1 inhibitors for treatment, elimination and eradication of HIV-1 infection” (priority 2015, dated 2021).

The subject of data set [1] is primary human macrophages. The experiment in a line: Toxicity in primary human macrophages (zombie violet live/dead dye, FACS). The following applies: Macrophage. The format is cell-based.
Data set [2] deals with HIV-1 (BaL). The experiment in a line: microbe, parasite or virus in culture. Type of data set: cell-based. The method, then:
Macrophages can be isolated as follows: Monocytes can be isolated from buffy coats of HIV-1 negative, HBV/HCV-negative donors with density gradient centrifugation coupled with enrichment for CD14+ monocytes with Rosette Sep antibody cocktail (Stem Cell Technologies, Vancouver, British Columbia). Cells can be seeded at a concentration of 1.0×10^6 cells/well for 1 hr at 37° C. and 5% CO2 to confer plastic adherence prior to repeated washes with 1×PBS. Macrophages can be maintained in medium containing 100 U/ml macrophage colony-stimulating factor (m-CSF, R&D Systems, Minneapolis, Minn.), supplemented with 20% fetal calf serum (Atlanta Biologicals, Lawrenceville, Ga.) and 1% penicillin/streptomyocin (Invitrogen, Carlsbad, Calif.) for 7 days (37° C., 5% CO2) prior to testing.
Macrophage infections: Macrophages can be cultured as described above for 7 days. For acute infection, macrophages can be serum starved for 8 hrs prior to infection and cultured for 2 hr in medium containing various concentrations of AZT (positive control) or Tofacitinib or Jakafi for 2 hr prior to removal of drug-containing medium and 4 hr infection with HIV-1BaL at 0.1 MOI in the absence of drug. Four hr after infection, virus can be removed and drug-containing medium returned to the cultures. Supernatants can be collected on day 7 post-infection and HIV-1 p24 can be quantified via ELISA (Zeptometrix Corporation, Buffalo, N.Y.). EC50 analysis can be performed using CalcuSyn software (BioSoft Corporation, Cambridge, UK).
Extracellular virus was quantified 7 days after infection (HIV-1 p24 ELISA).

Data set [3] concerns primary human lymphocytes. Put plainly: Proliferation and viability of activated PBM cells / PHA or PHA+IL-2 stimulated primary human lymphocytes. Type of data set: cell-based. To be noted: for Viability, proliferation or total cell number not affected up to: human. The method, then:
The toxicity of the compounds was assessed in Vero, human PBM, CEM (human lymphoblastoid), as described previously (see Schinazi R. F., Sommadossi J.-P., Saalmann V., Cannon D. L., Xie M.-Y., Hart G. C., Smith G. A. & Hahn E. F. Antimicrob. Agents Chemother. 1990, 34, 1061-67), and also in MØ cells. Cycloheximide was included as positive cytotoxic control, and untreated cells exposed to cell culture medium were included as negative controls. […]
Cell proliferation was evaluated in activated PBM cells incubated for 5 days with various concentrations of Tofacitinib and Jakafi, with cycloheximide as a positive control, and a “cells plus media” control used as well. The data is shown in FIG. 2, in terms of total cell number (10^6 cells) versus μM drug in medium.
Cell viability was evaluated in activated PBM cells incubated for 5 days with various concentrations of Tofacitinib and Jakafi, with cycloheximide as a positive control, and a “cells plus media” control used as well.
For all experiments, cells were incubated with media alone or drug-containing medium for 5 days prior to assessment of cell count and viability. […] Data are mean and standard deviations for at least three independent experiments conducted with at least four pooled donors, and duplicates within each experiment. Dotted bar represents mean cell count or viability for cells maintained in drug-free medium.

The test system of data set [4] is HIV-1. The method, then:
Human PBM cells can be isolated as follows: Lymphocytes can be isolated from buffy coats derived from healthy donors. Activated lymphocytes can be maintained for 72 hr in medium supplemented with 6 μg/ml phytohemagglutinin (PHA) (Cape Cod associates, East Falmouth, Mass.). Media can be comprised of RPMI media supplemented with 20% fetal calf serum, 1% penicillin/streptomyocin and 2% L-glutamine (Sigma Aldrich, San Jose, Calif.).
Human PBM cell infections: Testing can be performed in duplicate with at least 3 independent assays. Cells can be incubated in RPMI medium (HyClone, Logan, Utah) containing HR-IL2 (26.5 units/ml) and 20% fetal calf serum. Infections can be performed by adding HIV-ILA' followed by a further incubation at 37° C., 5% CO2, 1 hr prior to addition of drugs. Assays can be performed in 24 well plates (BD Biosciences, Franklin Lakes, N.J.). One ml of supernatant can be collected after 5 days in culture and then centrifuged at 12,000 rpm for 2 hr at 4° C. in a Jouan Br43i (Thermo Electron Corp., Marietta, Ohio). The product of the RT assay can be quantified using a Packard harvester and direct beta counter and the data can be analyzed as previously described (Schinazi et al., 1990).

Data set [5] concerns MØ cells. Type of data set: cell-based. The following applies: human. The method, then:
The toxicity of the compounds was assessed in Vero, human PBM, CEM (human lymphoblastoid), as described previously (see Schinazi R. F., Sommadossi J.-P., Saalmann V., Cannon D. L., Xie M.-Y., Hart G. C., Smith G. A. & Hahn E. F. Antimicrob. Agents Chemother. 1990, 34, 1061-67), and also in MØ cells. Cycloheximide was included as positive cytotoxic control, and untreated cells exposed to cell culture medium were included as negative controls.
The cytotoxicity IC50 was obtained from the concentration-response curve using the median effective method described previously (see Chou T.-C. & Talalay P. Adv. Enzyme Regul. 1984, 22, 27-55; Belen'kii M. S. & Schinazi R. F. Antiviral Res. 1994, 25, 1-11).

Data set [6] has as its system HepG2 cells. To be noted: 10 μM; cited from earlier work.
Data set [7] relates to mice. The following applies: mouse, in vivo; cited from earlier work.

Usually IC50 stands for the concentration needed to halve the response being measured. Lower therefore signals higher potency. By EC50 is commonly meant the concentration needed to bring the measured effect to its halfway point. A word on the EC90: it is the point of the concentration-response curve where the effect stands at 90%. For `Cc1cn([C@H]2C[C@H](N=[N+]=[N-])[C@@H](CO)O2)c(=O)[nH]c1=O` [AZT, 3′-azido-3′-deoxythymidine], the IC50 in data set [1] was more than 100 µM. Further, the “Inhibition of HIV-1 replication in primary human macrophages” value in data set [2] (HIV-1 BaL, p24 ELISA day 7) is given as “nanomolar inhibition”. Further, the EC50 in data set [2] (Human immunodeficiency virus 1, Macrophage, 168 h, HIV-1 BaL, extracellular virus 7 days after infection, read-out: Antiviral potency in primary human macrophages (EC50)) came out at 0.01 ± 0.02 µM. Also, the concentration for an effect of 90% (EC90) in data set [2] (Human immunodeficiency virus 1, Macrophage, 168 h, HIV-1 BaL, extracellular virus 7 days after infection, read-out: Antiviral potency in primary human macrophages (EC90)) came to 0.7 ± 0.2 µM.

As to `N#CC[C@H](C1CCCC1)n1cc(-c2ncnc3[nH]ccc23)cn1` [Jakafi], in data set [3], the “Proliferation versus cells exposed to media alone” value was “not significantly different”, the Total cell proliferation entry was “do not affect”, the Total cell viability result was “do not affect” and the “Viability versus cells exposed to media alone” value is “not significantly different”. Besides, the “Viability, proliferation or total cell number not affected up to” value in data set [3] (5 days) was “around 10 μM”. Further, in data set [2], the “Inhibition of HIV-1 replication in MØ cells” value is recorded as “sub-micromolar”. Moreover, the “Inhibition of HIV-1 replication in PBM cells” value in data set [4] was “sub-micromolar”. Also, the “Viability, proliferation or total cell number not affected up to” value in data set [5] is given as “around 10 μM”.

With `C[C@@H]1CCN(C(=O)CC#N)C[C@@H]1N(C)c1ncnc2[nH]ccc12` [Tofacitinib, 3-{(3R,4R)-4 methyl-3-[methyl-(7H-pyrrolo[2,3-d]pyrimidin-4-yl)-amino]-piperidin-1-yl}-3-oxo-propionitrile], in data set [3], the “Proliferation versus cells exposed to media alone” value was “not significantly different”, the Total cell proliferation entry was “do not affect”, the Total cell viability entry was “do not affect” and the “Viability versus cells exposed to media alone” value was “not significantly different”. The “Viability, proliferation or total cell number not affected up to” value in data set [3] (5 days) is recorded as “around 10 μM”. Further, in data set [2], the “Inhibition of HIV-1 replication in MØ cells” value was “sub-micromolar”. Further, the “Inhibition of HIV-1 replication in PBM cells” value in data set [4] was “sub-micromolar”. For the same compound, in data set [5], the “Viability, proliferation or total cell number not affected up to” value is given as “around 10 μM”.

With `C[C@@H]1C[C@@H]([C@H](O)CC2CC(=O)NC(=O)C2)C(=O)[C@@H](C)C1` [cycloheximide], the “Cell count and viability (positive control)” value in data set [3] (stimulated lymphocytes, 5 days) is on record as “toxic in a dose dependent manner”.

With `O=c1[nH]c(=O)n([C@@H]2O[C@H](CO)[C@@H](O)[C@@H]2F)cc1I` [fialuridine, 1,2′-deoxy-2′-fluoro-1-D-arabinofuranosly-5-iodo-uracil], the “Mitochondrial morphology in electron micrographs” value in data set [6] was “enlarged mitochondria with morphological changes consistent with mitochondrial dysfunction”.

On to “LR6-1: LQEEDA, SEQ ID NO 4 (listed as Homo sapiens)”, for which the “Protection of mice against polymicrobial sepsis” value (from here on “Protection of mice”) in data set [7] is given as “protect”.

For “LR6-2: EDAGEY, SEQ ID NO 5 (listed as Homo sapiens)”, the “Protection of mice” value in data set [7] is reported as “protect”.

Turning to “LR6-3: GEYGCM, SEQ ID NO 6 (listed as Homo sapiens)”, the “Protection of mice” value in data set [7] is recorded as “protect”.
